This is an account of results in article PMC6225212, “Synthesis and Pharmacological Evaluation of Novel Silodosin-Based Arylsulfonamide Derivatives as α1A/α1D-Adrenergic Receptor Antagonist with Potential Uroselective Profile” (Molecules : A Journal of Synthetic Chemistry and Natural …, 2018).

As usually defined, the Ki is the dissociation constant of the complex between target and ligand, obtained from inhibition or displacement. As usually defined, the IC50 is the midpoint of a concentration-inhibition curve. The EC50 is the concentration that produces a half-maximal response. The term microsomal CLint denotes the capacity of the preparation to metabolise the compound, expressed as a volume cleared per time.

Data set [1] addresses α2-ARs. The experiment in a line: Radioligand binding, displacement of [3H]-Clonidine from α2-ARs on rat cerebral cortex. The following applies: ± SEM, two independent experiments. How it is done:
(§1) The pharmacological profile of the new compounds was assessed in radioligand-binding assays as the ability to displace [^3H]-Prazosin or [^3H]-Clonidine from α1- and α2-ARs, respectively, on rat cerebral cortex. The inhibition constants (Ki) were calculated from the Cheng-Prusoff equation [24].
(§2) The affinity of the obtained compounds was evaluated by radioligand-binding assays (the ability to displace [^3H]-Prazosin and [^3H]-Clonidine from α1- and α2-ARs, respectively) on rat cerebral cortex. The brains are homogenized in 20 volumes of an ice-cold 50 mM Tris-HCl buffer (pH 7.6) and is centrifuged (MPW Med. Instruments, Warsaw, Poland) at 20,000 g for 20 min (0–4 °C). The cell pellet is resuspended in the Tris-HCl buffer and centrifuged again. Radioligand-binding assays are performed in plates (MultiScreen/Millipore, Burlington, MA, USA). The final incubation mixture (final volume 300 µL) consisted of 240 µL of the membrane suspension, 30 µL of [^3H]-Prazosin (0.2 nM) or [^3H]-Clonidine (2 nM) solution, and 30 µL of the buffer containing seven to eight concentrations (10^−11 to 10^−4 M) of the tested compounds. For measuring the unspecific binding, phentolamine, 10 µM (in the case of [^3H]-Prazosin) and clonidine, and 10 µM (in the case of [^3H]-Clonidine), were applied. The incubation was terminated by rapid filtration over glass fiber filters (Whatman GF/C, Sigma-Aldrich) using a vacuum manifold (Millipore). The filters were then washed twice with the assay buffer and placed in scintillation vials with a liquid-scintillation cocktail. Radioactivity was measured in a WALLAC 1409 DSA liquid-scintillation counter (BioSurplus, San Diego, CA, USA). All the assays were made in duplicate.
(In general: Loss of bound radioactivity is the signal in a displacement assay; it reports binding, not function.)

In data set [2] the target is T1, α1B-ARs (Homo sapiens, UniProt P35368).
T1 sequence (P35368 1-520): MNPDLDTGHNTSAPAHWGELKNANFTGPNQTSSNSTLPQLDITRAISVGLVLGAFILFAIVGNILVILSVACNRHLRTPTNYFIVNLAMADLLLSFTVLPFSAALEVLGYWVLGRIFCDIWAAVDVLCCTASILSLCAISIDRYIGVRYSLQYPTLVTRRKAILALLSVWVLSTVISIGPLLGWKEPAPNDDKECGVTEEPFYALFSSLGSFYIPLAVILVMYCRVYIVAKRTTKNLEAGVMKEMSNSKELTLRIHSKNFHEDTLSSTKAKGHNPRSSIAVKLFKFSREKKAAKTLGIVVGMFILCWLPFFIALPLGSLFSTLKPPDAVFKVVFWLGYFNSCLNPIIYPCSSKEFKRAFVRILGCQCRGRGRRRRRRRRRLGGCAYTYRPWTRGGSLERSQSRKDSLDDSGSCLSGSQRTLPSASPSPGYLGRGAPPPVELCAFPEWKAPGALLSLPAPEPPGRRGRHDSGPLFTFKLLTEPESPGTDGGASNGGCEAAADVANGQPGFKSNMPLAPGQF
In words: Intrinsic activity at α1B-ARs, aequorin calcium mobilization luminescence. The class given is cell-based. On the set-up: key to α1B Profile: ANT—antagonist; AGO—agonist. How it is done:
(§3) The intrinsic activity at α1A-ARs of the selected compounds was assessed by fluorescence detection (Invitrogen, Thermo Fisher Scientific, Carlsbad, CA, USA) of β-lactamase reporter genes using a FRET-enabled substrate. The intrinsic activity at α1B-ARs and α1D-ARs was determined by luminescence detection (PerkinElmer, Zaventem, Belgium) of calcium mobilization using the recombinant-expressed jellyfish photoprotein (Aequorin).
(§4) Intrinsic activity assay to α1B- and α1D-ARs was performed according to the manufacturer of the ready-to-use cells with stable expression of the α1B-adrenoreceptors and α1D-adrenoreceptors, respectively (PerkinElmer, Zaventem, Belgium). For measurement, cells (frozen, ready to use) were thawed and resuspended in 10 mL of assay buffer containing 5 µM coelenterazine h. This cells suspension was put in a 10 mL Falcon tube, fixed onto a rotating heel, and incubated for overnight at rt in the dark (8 rpm; 45° angle). Cells were diluted with Assay Buffer to 5000 cells/20 µL. Agonistic ligands 2 × (50 µL/well), diluted in Assay Buffer, were prepared in ½ white polystyrene area plates, and the cell suspension was dispensed in 50 µL volume on the ligands using the injector. The light emitted was recorded for 20 s. Cells with antagonist were incubated for 15 min at room temperature. Thereafter, 50 µL of agonist (3 × EC80 final concentration) was injected into the mix of cells and antagonist and the light emitted was recorded for 20 s.

Data set [3] has as its target T2, α1A-ARs (Homo sapiens, UniProt P35348).
T2 sequence (P35348 1-466): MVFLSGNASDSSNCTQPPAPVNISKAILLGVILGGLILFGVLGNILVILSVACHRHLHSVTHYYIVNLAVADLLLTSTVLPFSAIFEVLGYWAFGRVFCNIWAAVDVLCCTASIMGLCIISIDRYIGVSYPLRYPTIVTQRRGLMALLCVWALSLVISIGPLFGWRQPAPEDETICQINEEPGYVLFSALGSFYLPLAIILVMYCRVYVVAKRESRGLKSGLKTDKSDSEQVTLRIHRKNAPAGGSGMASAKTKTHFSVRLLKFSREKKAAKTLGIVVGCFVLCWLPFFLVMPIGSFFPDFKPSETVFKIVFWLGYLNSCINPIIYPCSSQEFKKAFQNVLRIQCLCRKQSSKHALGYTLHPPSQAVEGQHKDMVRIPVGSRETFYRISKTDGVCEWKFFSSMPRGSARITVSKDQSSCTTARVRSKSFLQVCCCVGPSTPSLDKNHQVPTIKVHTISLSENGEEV
In words: Intrinsic activity at α1A-ARs, β-lactamase reporter gene, FRET substrate. The class given is cell-based. Set-up: key to α1A Profile: ANT—antagonist; AGO—agonist. In general terms: In a reporter assay the amount or activity of a reporter protein is the signal.
Procedure: The intrinsic activity at α1A-ARs of the selected compounds was assessed by fluorescence detection (Invitrogen, Thermo Fisher Scientific, Carlsbad, CA, USA) of β-lactamase reporter genes using a FRET-enabled substrate. […] Intrinsic activity assay was performed according to the manufacturer of the assay kit (Invitrogen, Thermo Fisher Scientific corporation, Carlsbad, CA, USA). The cells were harvested and suspended in Assay Medium to a density of 312,500 cells/mL. Of the cell suspension, 32 µL per well was added to the Test Compound wells, the Unstimulated Control wells, and Stimulated Control wells and incubated per 16–24 h. […] Then, both the agonist and the antagonist plate were incubated in a humidified 37 °C/5% CO2 incubator for 5 h. After the incubation 8 µL of LiveBLAzer™-FRET B/G Substrate Mixture (CCF4-AM, Thermo Fisher Scientific corporation) was loaded cells in the absence of direct strong lighting, covered, and incubated at room temperature for 2 h.

Data set [4] has as its target T3, α1D-ARs (Homo sapiens, UniProt P25100).
T3 sequence (P25100 1-572): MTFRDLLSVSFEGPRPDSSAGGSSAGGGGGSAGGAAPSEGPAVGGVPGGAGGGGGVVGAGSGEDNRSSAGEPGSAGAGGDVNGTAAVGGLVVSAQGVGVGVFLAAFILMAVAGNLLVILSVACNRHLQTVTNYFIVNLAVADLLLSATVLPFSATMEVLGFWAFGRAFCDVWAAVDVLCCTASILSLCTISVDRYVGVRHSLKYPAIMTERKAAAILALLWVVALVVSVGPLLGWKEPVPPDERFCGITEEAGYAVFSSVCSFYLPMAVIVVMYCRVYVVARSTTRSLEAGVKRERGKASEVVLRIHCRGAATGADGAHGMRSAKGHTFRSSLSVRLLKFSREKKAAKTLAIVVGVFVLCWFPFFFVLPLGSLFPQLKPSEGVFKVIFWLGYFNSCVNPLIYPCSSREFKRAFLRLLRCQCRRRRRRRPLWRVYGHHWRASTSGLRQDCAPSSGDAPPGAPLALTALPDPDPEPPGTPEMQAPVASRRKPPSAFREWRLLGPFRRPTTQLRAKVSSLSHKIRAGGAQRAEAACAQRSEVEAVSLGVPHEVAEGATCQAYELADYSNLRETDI
In words: Intrinsic activity at α1D-ARs, aequorin calcium mobilization luminescence. The class given is cell-based. Set-up: key to α1D Profile: ANT—antagonist; AGO—agonist. The procedure: as §3, §4

The test system of data set [5] is α1-ARs. In words: Radioligand binding, displacement of [3H]-Prazosin from α1-ARs on rat cerebral cortex. The procedure:
as §1, §2

For data set [6], the target named is T2, α1A-ARs. On the set-up: method as in PMID 27658792; key to α1A Profile: ANT—antagonist; AGO—agonist. Conditions: cited from earlier work.
Data set [7] in a line: In vitro metabolic stability in rat-liver microsomes (RLM). It counts as in vitro ADME. The procedure:
In vitro biotransformation assays of selected compounds 9 and 10 were performed using rat-liver microsomes (RLM), potassium-phosphate buffer, NADPH-regenerating system (NADP, glucose-6-phosphate, glucose-6-phosphate dehydrogenase), and levallorphan as internal standard, according to the previously published procedure. Compound I and the drug tamsulosin were used as reference standard. UPLC/MS analysis (Waters Corporation, Milford, MA, USA) was performed to determine the quantity of the starting material left in solution. The in vitro half-time (t1/2) for test compounds was determined from the slope of the linear regression of ln % parent compound remaining versus incubation time. The calculated t1/2 was incorporated into the following equation to obtain intrinsic clearance: (Clint) = (volume of incubation [µL]/protein in the incubation [mg]) × 0.693/t1/2.
Metabolic stability of tested compound was analyzed using incubation systems, composed of: tested compounds (10 μM), RLMs (microsomes from rat male liver, pooled; 0.2 mg/mL; Sigma Aldrich), NADPH-regenerating system (NADP+, glucose-6-phosphate and glucose-6-phosphate dehydrogenase in 100mM potassium buffer, pH 7.4; all from Sigma Aldrich), and potassium buffer, pH 7.4. […] Firstly, all samples contained incubation mixture (without NADPH-regenerating system) were preincubated in a thermoblock at 37 °C for 10 min. Then reaction was initiated by the addition of NADPH-regenerating system. In control samples NADPH-regenerating system was replaced with potassium buffer. Probes were incubated in thermoblock for 15 and 30 min at 37 °C. After addition of internal standard (levallorphan, 10 μM), the biotransformation process was stopped by addition of perchloric acid (69–72%, by volume). Next, samples were centrifuged (Centrifuge 5427 R, Eppendorf, Hamburg, Germany) and supernatants were analyzed using UPLC/MS (Waters Corporation). All experiments were run in duplicates. Half-life time was evaluated using a nonlinear regression model using Graph Pad Prism software (Graph Pad Software, La Jolla, San Diego, CA, USA) and intrinsic clearance was calculated from the equation Clint = (volume of incubation [μL]/protein in the incubation [mg]) ×∙0.693/t1/2 [33].

Data set [8] has as its target T3, α1D-ARs. On the set-up: method as in PMID 27658792; key to α1D Profile: ANT—antagonist; AGO—agonist. Conditions: cited from earlier work.
Data set [9] concerns the target T1, α1B-ARs. Set-up: method as in PMID 27658792; key to α1B Profile: ANT—antagonist; AGO—agonist. Conditions: cited from earlier work.
Data set [10] addresses α2-ARs. Set-up: method as in PMID 27658792. Conditions: [3H]-Clonidine, rat cerebral cortex; ± SEM; cited from earlier work.
Data set [11] has as its system α1-ARs. Set-up: method as in PMID 27658792. The following applies: cited from earlier work.
[12] abbreviates: antagonist mode, three independent experiments.

Read-outs that look alike come from different tables or passages of the source.

For the molecule `COc1ccc(S(=O)(=O)NCC2CCN(CCOc3ccccc3OCC(F)(F)F)CC2)cc1OC` [Compound 12, 3,4-Dimethoxy-N-[(1-{2-[(2,2,2-trifluoroethoxy)phenoxy]ethyl}piperidin-4-yl)methyl]benzenesulfonamide], the Ki on α2-ARs [1] was 524 ± 31 nM; at α1-ARs [5] ([3H]-Prazosin, rat cerebral cortex, ± SEM, two independent experiments), 19 ± 3 nM. The half-maximal inhibitory concentration (IC50) at α1B-ARs [2] (setting [12]) stood at 0.02 nM; on α1A-ARs [3] (setting [12]), 15 nM; at α1D-ARs [4] (setting [12]) it was 2.6 nM. Moreover, on α1B-ARs [2] (functional profile), the “α1B Profile” value is given as “ANT”. On α1A-ARs [3] (functional profile), the “α1A Profile” value is listed as “ANT”. Besides, the EC50 on α1D-ARs [4] (antagonist, as worded in abstract and text, read-out: EC50(α1D)) is 1.1 to 2.7 nM. The “α1D Profile” value on α1D-ARs [4] (functional profile) is recorded as “ANT”. For the same molecule, the “Sα2/α1 (ratio of affinity for α2- and α1-ARs)” value with α1-ARs [5] (Ki α2 / Ki α1) was 27.
As to `CC(C)Oc1ccccc1OCCN1CCC(CNS(=O)(=O)c2cccc(Cl)c2F)CC1` [Compound I], the 50% inhibitory concentration (IC50) at α1A-ARs [6] (antagonist mode) is 11.1 nM; on α1D-ARs [8] (antagonist mode), 15.1 nM; on α1B-ARs [9] (antagonist mode), 42.1 nM. Besides, the “α1A Profile” value at α1A-ARs [6] (functional profile) is on record as “ANT ^b”. Besides, in [7] (RLM), the “Major Metabolic Pathway” value is recorded as “N-dealkylation”. Besides, the microsomal CLint at 10 μM in data set [7] (male, rat, rat liver microsomes, pH 7.4, RLM 0.2 mg/mL, compound 10 μM, 37 °C) worked out at 87 µL/min/mg. Also, the half-life at 10 μM in data set [7] (male, rat, rat liver microsomes, pH 7.4, RLM 0.2 mg/mL, compound 10 μM, 37 °C, read-out: t½) came out at 40 min. The “α1D Profile” value on α1D-ARs [8] (functional profile) is “ANT”. Further, the “α1B Profile” value on α1B-ARs [9] (functional profile) was “ANT”. For the same molecule, the Ki on α2-ARs [10] is 1210 ± 99 nM.
With `CC(C)Oc1ccccc1OCCN1CC[C@H](NS(=O)(=O)c2cc(Cl)ccc2F)C1` [II], the “Sα2/α1 (ratio of affinity for α2- and α1-ARs)” value with α1-ARs [11] (Ki α2 / Ki α1) is on record as above 41. Besides, the Ki is 242 ± 16 nM at α1-ARs [11] ([3H]-Prazosin, rat cerebral cortex, ± SEM) and above 10000 nM at α2-ARs [10].
